{"source": "ChEMBL document CHEMBL5126555", "about": "“Targeting breast cancer resistance protein (BCRP/ABCG2): Functional inhibitors and expression modulators” (Eur J Med Chem, 2022)", "key": {"[1]": {"target": "T1, Broad substrate specificity ATP-binding cassette transporter ABCG2 (Homo sapiens, UniProt Q9UNQ0)", "T1 sequence (Q9UNQ0 whole entry)": "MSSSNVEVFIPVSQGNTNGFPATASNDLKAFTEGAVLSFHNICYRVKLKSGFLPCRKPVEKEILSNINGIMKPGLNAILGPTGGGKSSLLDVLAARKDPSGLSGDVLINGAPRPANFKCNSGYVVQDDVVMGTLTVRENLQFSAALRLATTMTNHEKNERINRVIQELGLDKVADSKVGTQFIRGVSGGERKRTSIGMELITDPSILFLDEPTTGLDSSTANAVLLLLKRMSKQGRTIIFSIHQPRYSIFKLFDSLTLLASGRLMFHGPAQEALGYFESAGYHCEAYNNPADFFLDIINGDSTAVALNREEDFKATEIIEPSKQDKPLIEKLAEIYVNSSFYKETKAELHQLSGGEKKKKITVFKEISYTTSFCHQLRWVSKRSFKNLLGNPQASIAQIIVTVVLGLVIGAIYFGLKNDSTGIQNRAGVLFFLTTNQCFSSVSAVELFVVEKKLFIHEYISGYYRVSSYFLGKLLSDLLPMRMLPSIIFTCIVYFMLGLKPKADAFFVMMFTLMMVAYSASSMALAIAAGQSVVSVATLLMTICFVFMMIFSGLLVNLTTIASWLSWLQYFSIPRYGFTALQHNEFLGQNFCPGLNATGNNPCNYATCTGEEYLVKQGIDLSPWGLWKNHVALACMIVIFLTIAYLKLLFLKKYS", "test": "Inhibition of ABCG2 (unknown origin) expressed in human HEK293 cells mediated mitoxantrone efflux assessed as intracellular mitoxantrone level and measured after 30 mins by FACSflow cytometry analysis", "assay_type": "cell-based"}, "[2]": {"target": "T1, Broad substrate specificity ATP-binding cassette transporter ABCG2", "test": "Inhibition of ABCG2 (unknown origin) expressed in human K562 cells assessed as extrusion of Hoechst 33342 using Hoechst 33342 as substrate by flow cytometry", "assay_type": "cell-based"}, "[3]": {"target": "T1, Broad substrate specificity ATP-binding cassette transporter ABCG2", "test": "Inhibition of ABCG2 (unknown origin) expressed in human MCF7-VP cells mediated mitoxantrone efflux assessed as intracellular mitoxantrone level and measured after 45 mins by flow cytometry analysis", "assay_type": "cell-based"}, "[4]": {"target": "T1, Broad substrate specificity ATP-binding cassette transporter ABCG2", "test": "Inhibition of human ABCG2 expressed in dog MDCK-II-BCRP cells membrane vesicles mediated transport of 3[H]-methotrexate for 5 mins using [3H]-methotrexate as substrate by radiometric scintillation analysis", "assay_type": "cell membranes, Membrane vesicle"}, "[5]": {"target": "T1, Broad substrate specificity ATP-binding cassette transporter ABCG2", "test": "Inhibition of human ABCG2 expressing membrane vesicles assessed inhibition of BCRP- mediated transport of [3H]estrone 3-sulfate for 2 mins using [3H]-estrone sulfate as substrate by radiometric scintillation analysis", "assay_type": "cell membranes, Membrane vesicle"}, "[6]": {"target": "T1, Broad substrate specificity ATP-binding cassette transporter ABCG2", "description": "Inhibition of ABCG2 (unknown origin) expressed in human MCF7 cells membrane mediated [125I]iodoarylazidoprazosin photolabelling for 5 mins followed by UV light irradiation for 10 mins by radiometric scintillation analysis"}, "[7]": {"target": "T1, Broad substrate specificity ATP-binding cassette transporter ABCG2", "test": "Inhibition of ABCG2 (unknown origin) expressed in human S1M180 cells mediated [3H]-mitoxantrone efflux assessed as intracellular [3H]-mitoxantrone level by flow cytometry", "assay_type": "cell-based"}, "[8]": {"target": "T1, Broad substrate specificity ATP-binding cassette transporter ABCG2", "test": "Inhibition of ABCG2 (unknown origin) expressed in human NCI-H460 cells mediated pheophorbide A efflux for 2 to 20 hr by fluorescence plate reader analysis", "assay_type": "cell-based"}, "[9]": {"target": "T1, Broad substrate specificity ATP-binding cassette transporter ABCG2", "conditions": "saos-2", "description": "Inhibition of ABCG2 (unknown origin) expressed in human SAOS-2 cells mediated Hoechst 33342 efflux preincubated with compound for 15 mins followed by substrate addition and measured after 45 mins using Hoechst 33342 as substrate by flow cytometry"}, "[10]": {"target": "T1, Broad substrate specificity ATP-binding cassette transporter ABCG2", "test": "Inhibition of ABCG2 (unknown origin) expressed in human MCF7 cells membrane mediated [125I]iodoarylazidoprazosin photolabelling for 10 mins followed by UV light irradiation for 10 mins by radiometric scintillation analysis", "assay_type": "cell membranes"}, "[11]": {"target": "T1, Broad substrate specificity ATP-binding cassette transporter ABCG2", "test": "Inhibition of ABCG2 (unknown origin) expressed in human S1M180 cells assessed as intracellular accumulation of rhodamine 123 using rhodamine 123 as substrate by flow cytometry", "assay_type": "cell-based"}, "[12]": {"target": "T1, Broad substrate specificity ATP-binding cassette transporter ABCG2", "test": "Inhibition of ABCG2 (unknown origin) expressed in human HEK293 cells assessed as BODIPY-Prazosin uptake and measured after 2 hrs by FACScan flow cytometry analysis", "assay_type": "cell-based"}}}
{"smiles": "c1ccc2c(c1)OCO2", "values": [{"measurement": "IC50", "setting": "[1]", "value": 940, "unit": "nM"}]}
{"smiles": "COc1cc(Nc2c(C#N)cnc3cc(OCCCN4CCN(C)CC4)c(OC)cc23)c(Cl)cc1Cl", "note": "[BOSUTINIB]", "values": [{"measurement": "IC50", "setting": "[2]", "value": 2000, "unit": "nM"}]}
{"smiles": "COc1cc(/C=C/C(=O)CC(=O)/C=C/c2ccc(O)c(OC)c2)ccc1O", "note": "[CURCUMIN]", "values": [{"measurement": "IC50", "setting": "[3]", "value": 1630, "unit": "nM"}]}
{"smiles": "CC1=NN(c2ccc(C)c(C)c2)C(=O)/C1=N\\Nc1cccc(-c2cccc(C(=O)O)c2)c1O", "note": "[ELTROMBOPAG]", "values": [{"measurement": "IC50", "setting": "[4]", "value": 3100, "unit": "nM"}]}
{"smiles": "COc1cc(Nc2ncc(F)c(Nc3ccc4c(n3)N(COP(=O)(O)O)C(=O)C(C)(C)O4)n2)cc(OC)c1OC", "note": "[FOSTAMATINIB]", "values": [{"measurement": "IC50", "setting": "[5]", "value": 50, "unit": "nM"}]}
{"smiles": "CS(=O)(=O)CCNCc1ccc(-c2ccc3ncnc(Nc4ccc(OCc5cccc(F)c5)c(Cl)c4)c3c2)o1", "note": "[LAPATINIB]", "values": [{"measurement": "IC50", "setting": "[6]", "value": 3200, "unit": "nM"}]}
{"smiles": "CNC(=O)c1cc(Oc2ccc(NC(=O)Nc3ccc(Cl)c(C(F)(F)F)c3)c(F)c2)ccn1", "note": "[REGORAFENIB]", "values": [{"measurement": "IC50", "setting": "[7]", "value": 3000, "unit": "nM"}]}
{"smiles": "COC(=O)[C@H]1[C@H]2C[C@@H]3c4[nH]c5cc(OC)ccc5c4CCN3C[C@H]2C[C@@H](OC(=O)c2cc(OC)c(OC)c(OC)c2)[C@@H]1OC", "note": "[RESERPINE]", "values": [{"measurement": "IC50", "setting": "[8]", "value": 11800, "unit": "nM"}]}
{"smiles": "CNC(=O)c1cc(Oc2ccc(NC(=O)Nc3ccc(Cl)c(C(F)(F)F)c3)cc2)ccn1", "note": "[SORAFENIB]", "values": [{"measurement": "IC50", "setting": "[9]", "value": 3100, "unit": "nM"}]}
{"smiles": "COc1cc2nccc(Oc3ccc(NC(=O)Nc4cc(C)on4)c(Cl)c3)c2cc1OC", "note": "[TIVOZANIB]", "values": [{"measurement": "IC50", "setting": "[10]", "value": 70, "unit": "nM"}]}
{"smiles": "COc1cc2c(Nc3ccc(Br)cc3F)ncnc2cc1OCC1CCN(C)CC1", "note": "[VANDETANIB]", "values": [{"measurement": "IC50", "setting": "[11]", "value": 200, "unit": "nM"}]}
{"smiles": "CS(=O)(=O)c1ccc(C(=O)Nc2ccc(Cl)c(-c3ccccn3)c2)c(Cl)c1", "note": "[VISMODEGIB]", "values": [{"measurement": "IC50", "setting": "[12]", "value": 1400, "unit": "nM"}]}
